# Counter-ions that a name gives are not always drawn.
# Target: T1, human p38 kinase alpha (Homo sapiens, UniProt Q16539)
# T1 construct: The coding region of the human p38a cDNA was obtained by PCR-amplification from RNA isolated from the human monocyte cell line THP.1; made in house; host or cells: E. coli DH10B
# Experiment: p38 kinase in vitro assay (PHAS-I / 32P-ATP format or EGFRP / 33P-ATP format)
# Format: biochemical
# Conditions: activated human p38 kinase alpha, 50 μM unlabeled ATP; two assay formats, table does not say which
# Procedure: The ability of compounds to inhibit human p38 kinase alpha was evaluated using two in vitro assay methods. In the first method, activated human p38 kinase alpha phosphorylates a biotinylated substrate, PHAS-I (phosphorylated heat and acid stable protein-insulin inducible), in the presence of gamma ^32P-ATP (^32P-ATP). PHAS-I was biotinylated prior to the assay and provides a means of capturing the substrate, which is phosphorylated during the assay. p38 Kinase was activated by MKK6. Compounds were tested in 10 fold serial dilutions over the range of 100 μM to 0.001 μM using 1% DMSO. Each concentration of inhibitor was tested in triplicate.
# All reactions were carried out in 96 well polypropylene plates. Each reaction well contained 25 mM HEPES pH 7.5, 10 mM magnesium acetate and 50 μM unlabeled ATP. Activation of p38 was required to achieve sufficient signal in the assay. Biotinylated PHAS-1 was used at 1-2 μg per 50 μl reaction volume, with a final concentration of 1.5 μM. Activated human p38 kinase alpha was used at 1 μg per 50 μl reaction volume representing a final concentration of 0.3 μM. Gamma ^32P-ATP was used to follow the phosphorylation of PHAS-1. ^32P-ATP has a specific activity of 3000 Ci/mmol and was used at 1.2 μCi per 50 μl reaction volume. The reaction proceeded either for one hour or overnight at 30° C.
# Following incubation, 20 μl of reaction mixture was transferred to a high capacity streptavidin coated filter plate (SAM-streptavidin-matrix, Promega) prewetted with phosphate buffered saline. The transferred reaction mix was allowed to contact the streptavidin membrane of the Promega plate for 1-2 minutes. Following capture of biotinylated PHAS-1 with ^32P incorporated, each well was washed to remove unincorporated ^32P-ATP three times with 2M NaCl, three washes of 2M NaCl with 1% phosphoric, three washes of distilled water and finally a single wash of 95% ethanol. Filter plates were air-dried and 20 μl of scintillant was added. The plates were sealed and counted.
# A second assay format was also employed that is based on p38 kinase alpha induced phosphorylation of EGFRP (epidermal growth factor receptor peptide, a 21 mer) in the presence ^33P-ATP. Compounds were tested in 10 fold serial dilutions over the range of 100 μM to 0.001 μM in 1% DMSO. Each concentration of inhibitor was tested in triplicate. Compounds were evaluated in 50 μl reaction volumes in the presence of 25 mM Hepes pH 7.5, 10 mM magnesium acetate, 4% glycerol, 0.4% bovine serum albumin, 0.4 mM DTT, 50 μM unlabeled ATP, 25 μg EGFRP (200 μM), and 0.05 μCi ^33P-ATP. Reactions were initiated by addition of 0.09 μg of activated, purified human GST-p38 kinase alpha. Activation was carried out using GST-MKK6 (5:1, p38:MKK6) for one hour at 30° C. in the presence of 50 μM ATP. Following incubation for 60 minutes at room temperature, the reaction was stopped by addition of 150 μl of AG 1×8 resin in 900 mM sodium formate buffer, pH 3.0 (1 volume resin to 2 volumes buffer). The mixture was mixed three times with pipetting and the resin was allowed to settle. A total of 50 μl of clarified solution head volume was transferred from the reaction wells to Microlite-2 plates. 150 μl of Microscint 40 was then added to each well of the Microlite plate, and the plate was sealed, mixed, and counted.
# The above protocol assays were used to determine the IC50 values for compounds in Examples 1-71 above.
# T1 sequence (Q16539 whole entry): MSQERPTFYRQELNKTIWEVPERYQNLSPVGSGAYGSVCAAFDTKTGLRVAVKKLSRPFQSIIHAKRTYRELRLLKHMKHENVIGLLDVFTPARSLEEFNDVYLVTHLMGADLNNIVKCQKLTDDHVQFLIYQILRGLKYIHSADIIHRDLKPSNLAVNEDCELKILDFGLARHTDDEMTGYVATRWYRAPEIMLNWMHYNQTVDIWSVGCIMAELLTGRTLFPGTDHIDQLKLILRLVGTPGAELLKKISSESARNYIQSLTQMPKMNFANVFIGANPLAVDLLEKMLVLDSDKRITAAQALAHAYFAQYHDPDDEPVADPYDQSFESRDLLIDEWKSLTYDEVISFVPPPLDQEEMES
row,SMILES,IC50
1,"CC(C)c1nnc2ccc(Sc3ccc(Br)cc3C(F)(F)F)cn12 [Example 51, 6-{[4-bromo-2-(trifluoromethyl)phenyl]thio}-3-isopropyl[1,2,4]triazolo[4,3-a]pyridine hydrochloride]",> 100000 nM
2,"CC(C)c1nnc2ccc(Sc3ccc(F)cc3C(F)(F)F)cn12 [Example 53, 6-{[4-fluoro-2-(trifluoromethyl)phenyl]thio}-3-isopropyl[1,2,4]triazolo[4,3-a]pyridine hydrochloride]",50500 nM
3,"CC(C)c1nnc2ccc(Sc3c(Cl)cc(Cl)cc3Cl)cn12 [Example 55, 3-isopropyl-6-[(2,4,6-trichlorophenyl)thio][1,2,4]triazolo[4,3-a]pyridine hydrochloride]",8240 nM
4,"C=Cc1ccc2nnc(C(C)C)n2c1 [Example 56, 3-isopropyl-6-vinyl[1,2,4]triazolo[4,3-a]pyridine]",> 100000 nM
5,"C=Cc1ccc(-c2nnc3ccc(Sc4ccc(F)cc4F)cn23)cc1 [Example 57, 6-[(2,4-difluorophenyl)thio]-3-(4-vinylphenyl)[1,2,4]triazolo[4,3-a]pyridine]",181 nM
6,"COC(=O)c1cccc(-c2nnc3ccc(Cc4ccc(F)cc4F)cn23)c1 [Example 58, methyl 3-[6-(2,4-difluorobenzyl)[1,2,4]triazolo[4,3-a]pyridin-3-yl]benzoate]",141 nM
7,"O=C(O)c1ccc(-c2nnc3ccc(Cc4ccc(F)cc4F)cn23)cc1 [Example 59, 4-[6-(2,4-difluorobenzyl)[1,2,4]triazolo[4,3-a]pyridin-3-yl]benzoic acid]",> 100000 nM
8,"CC(C)c1nnc2ccc([S+]([O-])c3ccc(F)cc3F)cn12 (centres unmarked) [Example 60, 6-[(2,4-difluorophenyl)sulfinyl]-3-isopropyl[1,2,4]triazolo[4,3-a]pyridine]",9680 nM
9,"CC(C)c1nnc2ccc(S(=O)(=O)c3ccc(F)cc3F)cn12 [Example 61, 6-[(2,4-difluorophenyl)sulfonyl]-3-isopropyl[1,2,4]triazolo[4,3-a]pyridine]",> 100000 nM
10,"OCC(O)c1ccc(-c2nnc3ccc(Cc4ccc(F)cc4F)cn23)cc1 (centres unmarked) [Example 62, 1-{4-[6-(2,4-difluorobenzyl)[1,2,4]triazolo[4,3-a]pyridin-3-yl]phenyl}ethane-1,2-diol trifluoroacetate]",443 nM
11,"CC(C)(C)c1nnc2ccc(Sc3c(Cl)cccc3Cl)cn12 [Example 63, 3-tert-butyl-6-[(2,6-dichlorophenyl)thio][1,2,4]triazolo[4,3-a]pyridine]",54.6 nM
12,"COC(=O)c1cccc(-c2nnc3ccc(Sc4ccc(F)cc4F)cn23)c1 [Example 64A, methyl 3-{6-[(2,4-difluorophenyl)thio][1,2,4]triazolo[4,3-a]pyridin-3-yl}benzoate]",181 nM
13,"O=C(O)c1cccc(-c2nnc3ccc(Sc4ccc(F)cc4F)cn23)c1 [Example 64B, 3-{6-[(2,4-difluorophenyl)thio][1,2,4]triazolo[4,3-a]pyridin-3-yl}benzoic acid]",7420 nM
14,"COC(=O)c1cccc(-c2nnc3ccc(C(O)c4ccc(F)cc4F)cn23)c1 (centres unmarked) [Example 65, methyl 3-{6-[(2,4-difluorophenyl)(hydroxy)methyl][1,2,4]triazolo[4,3-a]pyridin-3-yl}benzoate]",1130 nM
15,"O=C(O)c1cccc(-c2nnc3ccc(C(=O)c4ccc(F)cc4F)cn23)c1 [Example 66, 3-[6-(2,4-difluorobenzoyl)[1,2,4]triazolo[4,3-a]pyridin-3-yl]benzoic acid]",> 100000 nM
16,"CC(C)c1nnc2ccc(Cc3ccccc3F)cn12 [Example 67, 6-(2-fluorobenzyl)-3-isopropyl[1,2,4]triazolo[4,3-a]pyridine]",699 nM
17,"CC(C)c1nnc2ccc(Cc3cccc(F)c3)cn12 [Example 68, 6-(3-fluorobenzyl)-3-isopropyl[1,2,4]triazolo[4,3-a]pyridine]",5260 nM
18,"CC(C)c1nnc2ccc(Cc3ccc(F)cc3)cn12 [Example 69, 6-(4-fluorobenzyl)-3-isopropyl[1,2,4]triazolo[4,3-a]pyridine]",2500 nM
19,"CC(C)(C)c1nnc2ccc(Cc3ccc(F)cc3F)cn12 [Example 70, 3-tert-butyl-6-(2,4-difluorobenzyl)[1,2,4]triazolo[4,3-a]pyridine]",122 nM
20,"CC(C)C(=O)c1ccc2nnc(C(C)C)n2c1 [Example 71, 1-(3-isopropyl[1,2,4]triazolo[4,3-a]pyridin-6-yl)-2-methylpropan-1-one]",99100 nM

# From patent publication US20090209577A1, “Novel Triazolopyridine Compounds” (PFIZER INC., priority 2004, published 2009)
